The conditions of series [1]: for mass density: 298.15 K, 101.33 kPa, Pycnometric method.
Series [2] can be described thus: refractive index (Na D-line) (dimensionless). As to conditions: 298.15 K; 101.33 kPa; Liquid; Standard Abbe refractometry.

The term mass density denotes the mass of a sample divided by its volume. By refractive index is commonly meant the speed of light in vacuum divided by its phase velocity in the sample.

Each structure is given as a SMILES string. Numbers after ± are expanded uncertainties.

Regarding `Oc1ccccc1O` [1,2-benzenediol], the mass density in series [1] (Crystal) is 1346 ± 2 kg/m3. The Normal melting temperature in series [1] (Crystal, visual observation) was 106.10 ± 1.6 °C.

Turning to `CCCCOC(C)=O` [butyl ethanoate], in series [1] (Liquid), the mass density amounted to 873.1 ± 2 kg/m3. Besides, the refractive index in series [2] is 1.393 ± 0.0004.

With `CO` [methanol], in series [1] (Liquid), the mass density turned out to be 786.1 ± 2 kg/m3. The refractive index in series [2] amounted to 1.3264 ± 0.0004.
